Source: US11845770B2, “Ascaroside derivatives and methods of use” (California Institute of Technology, priority 2019, dated 2023)

How the values were obtained:
[1] = system: A549 human alveolar epithelial cells; test: Stimulation of A549 human lung carcinoma cell line, cytokine expression; format: cell-based; settings: A549, 10 ng/mL TNFα + 10 ng/mL IL-1β, 48 hours; for percent inhibition relative to Stimulated of IL-8 expression: FIG. 16
Procedure: A549 cells are cultured in DMEM supplemented with 2 mM glutamine and 10% Fetal Bovine Serum (FBS) at 37° C. with 5% (v/v) CO2. Cells are grown to approximately 80% confluency before being passage and media is changed every 2-3 days. A549 cells are seeded in 24-well plates at a density of 0.5×10^6 cells per well at 37° C. with 5% (v/v) CO2. The cells are pre-treated with the compounds (0, 1.0, 10, 100 μM) for 1 hour prior to addition of 10 ng/mL of TNFα and 10 ng/mL of IL-1β for 48 hours at 37° C. with 5% (v/v) CO2. Supernatants were collected and stored at −80° C. until quantitative detection assays are performed.
Human Eotaxin, Monocyte Chemoattractant Protein-1 (MCP-1), Interleukin-6 (IL-6), Interleukin-25 (IL-25), Interleukin-33 (IL-33), Thymic stromal lymphopoietin (TSLP), and Granulocyte-Macrophage Colony-Stimulating Factor (GM-CSF) released from supernatants collected post stimulation were measured using Human Magnetic Luminex® Assay Kit. Human CCL5/RANTES was measured using an Enzyme-Linked Immunosorbent Assay (ELISA)-based analysis.

[2] = Stability in plasma (rat); format: in vitro ADME; settings: after 120 minutes, 37° C.
Procedure: The pH of plasma was adjusted to 7.4±0.1 if required. 1 mM intermediate solution was prepared by diluting 10 μL of the 10 mM stock solution of 1 with 90 μL DMSO; 1 mM intermediate of positive control propantheline bromide was prepared by diluting 10 μL of the stock solution with 90 μL ultra-pure water. 100 μM dosing solution was prepared by diluting 10 μL of the 1 mM intermediate solution with 90 μL of 45% MeOH/H2O. 98 μL of blank plasma was spiked with 2 μL of the 100 μM dosing solution to achieve a final concentration of 2 μM of the compound in duplicate. Samples were incubated at 37° C. in a water bath. At each time point (0, 10, 30, 60 and 120 min), 400 μL of stop solution (200 ng/mL tolbutamide plus 200 ng/mL labetalol in 50% ACN/MeOH) was added and was mixed thoroughly to precipitate protein. Sample plates were centrifuged at 4,000 rpm for 10 min. An aliquot of supernatant (100 μL) was transferred from each well and was mixed with 200 μL ultra-pure water. The samples were shaken at 800 rpm for about 10 min before LC/MS/MS analysis.
The remaining percentage of compound 1 (test article) after incubation was calculated according to the following equation.

Caco-2 cells = test: Bidirectional permeability in Caco-2 cells; format: in vitro ADME; settings: 2 μM, 2 hours
Procedure: Caco-2 cells purchased from ATCC were seeded onto […] (PET) in 96-well BD Insert plates at 1×10^5 cells/cm^2, and the medium was refreshed every 4˜5 days until to the 21st to 28th day for formation of a confluent cell monolayer.
The transport buffer in the study was Hank's balanced salt solution (HBSS) with 10 mM HEPES at pH 7.40±0.05. Compound 1 was tested at 2 μM bi-directionally in duplicate. Digoxin was tested at 10 μM bi-directionally in duplicate, while nadolol and metoprolol were tested at 2 μM in A to B direction in duplicate. Final DMSO concentration was adjusted to less than 1%. […] Concentrations of compound 1 and […] in starting solution, donor solution, and receiver solution were quantified by LC/MS/MS methodologies, using peak area ratio of analyte/internal standard. […]
The apparent permeability coefficient Papp (cm/s) was calculated using the equation: Papp=(dCr/dt)×Vr/(A×C0) where dCr/dt is the cumulative concentration of compound in the receiver chamber as a function of time (μM/s); Vr is the solution volume in the receiver chamber (0.075 mL on the apical side, 0.25 mL on the basolateral side); A is the surface area for the transport, i.e. 0.0804 cm^2 for the area of the monolayer; Co is the initial concentration in the donor chamber (μM).
The efflux ratio was calculated using the equation: Efflux Ratio=Papp(BA)/Papp(AB) […]

remaining percentage after incubation [2] | bidirectional permeability (Caco-2 cells) | SMILES | percent inhibition relative to Stimulated of IL-8 expression ([1]; 1.0, 10, 100 μM) | percent inhibition relative to Stimulated of GM-CSF expression ([1]; 1.0, 10, 100 μM, FIG. 16, 17) | percent inhibition relative to Stimulated of IL-25 expression ([1]; 1.0, 10, 100 μM, FIG. 16, 17) | percent inhibition relative to Stimulated of IL-33 expression ([1]; 1.0, 10, 100 μM, FIG. 16, 17) | percent inhibition relative to Stimulated of MCP-1 expression ([1]; 1.0, 10, 100 μM, FIG. 16, 17) | percent inhibition relative to Stimulated of Eotaxin expression ([1]; FIG. 18) | percent inhibition relative to Stimulated of IL-6 expression ([1]; FIG. 18) | percent inhibition relative to Stimulated of RANTES expression ([1]; FIG. 18) | percent inhibition relative to Stimulated of TSLP expression ([1]; FIG. 18)
19.2% | high bidirectional permeability | C[C@H](CC/C=C/C(=O)OC(C)(C)C)O[C@@H]1O[C@@H](C)[C@H](O)C[C@H]1O [Compound 1, tert-butyl (2E,6R)-6-{[(2R,3R,5R,6S)-3,5-dihydroxy-6-methyloxan-2-yl]oxy}hept-2-enoate] | dose-dependent inhibition | statistically significant, dose-dependent inhibition | dose-dependent inhibition | statistically significant, dose-dependent inhibition | statistically significant, dose-dependent inhibition | robust, statistically significant inhibition | robust, statistically significant inhibition | robust, statistically significant inhibition | robust, statistically significant inhibition
99.8% | low bidirectional permeability | C[C@H](CC/C=C/C(=O)O)O[C@@H]1O[C@@H](C)[C@H](O)C[C@H]1O [ascr #7, reference compound] | did not influence | statistically significant but not dose-dependent inhibition | did not influence | – | statistically significant but not dose-dependent inhibition | – | – | – | –
